For orientation: Ki means the dissociation constant of the complex between target and ligand, obtained from inhibition or displacement.

Each structure is given as a SMILES string.

This experiment addresses Voltage-dependent calcium channel subunit alpha-2/delta-1 (Homo sapiens, UniProt P54289). Nature of the experiment: Binding Assay: α2δ-1: Binding Assay to Human α2δ-1 Subunit of Cav2.2 Calcium Channel.Human α2δ-1 enriched membranes (2.5 μg) were incubated with 15 nM of radiolabeled [3H]-Gabapentin in assay buffer containing Hepes-KOH 10 mM, pH 7.4.NSB (non specific binding) was measured by adding 10 μM pregabalin. After 60 min incubation at 27° C., binding reaction was terminated by filtering through Multiscreen GF/C (Millipore) presoaked in 0.5% polyethyleneimine in Vacuum Manifold Station, followed by 3 washes with ice-cold filtration buffer containing 50 mM Tris-HCl, pH 7.4.Filter plates were dried at 60° C. for 1 hour and 30 μl of scintillation cocktail were added to each well before radioactivity reading.Readings were performed in a Trilux 1450 Microbeta radioactive counter (Perkin Elmer).

Voltage-dependent calcium channel subunit alpha-2/delta-1, sequence (P54289 25-956 limits assumed): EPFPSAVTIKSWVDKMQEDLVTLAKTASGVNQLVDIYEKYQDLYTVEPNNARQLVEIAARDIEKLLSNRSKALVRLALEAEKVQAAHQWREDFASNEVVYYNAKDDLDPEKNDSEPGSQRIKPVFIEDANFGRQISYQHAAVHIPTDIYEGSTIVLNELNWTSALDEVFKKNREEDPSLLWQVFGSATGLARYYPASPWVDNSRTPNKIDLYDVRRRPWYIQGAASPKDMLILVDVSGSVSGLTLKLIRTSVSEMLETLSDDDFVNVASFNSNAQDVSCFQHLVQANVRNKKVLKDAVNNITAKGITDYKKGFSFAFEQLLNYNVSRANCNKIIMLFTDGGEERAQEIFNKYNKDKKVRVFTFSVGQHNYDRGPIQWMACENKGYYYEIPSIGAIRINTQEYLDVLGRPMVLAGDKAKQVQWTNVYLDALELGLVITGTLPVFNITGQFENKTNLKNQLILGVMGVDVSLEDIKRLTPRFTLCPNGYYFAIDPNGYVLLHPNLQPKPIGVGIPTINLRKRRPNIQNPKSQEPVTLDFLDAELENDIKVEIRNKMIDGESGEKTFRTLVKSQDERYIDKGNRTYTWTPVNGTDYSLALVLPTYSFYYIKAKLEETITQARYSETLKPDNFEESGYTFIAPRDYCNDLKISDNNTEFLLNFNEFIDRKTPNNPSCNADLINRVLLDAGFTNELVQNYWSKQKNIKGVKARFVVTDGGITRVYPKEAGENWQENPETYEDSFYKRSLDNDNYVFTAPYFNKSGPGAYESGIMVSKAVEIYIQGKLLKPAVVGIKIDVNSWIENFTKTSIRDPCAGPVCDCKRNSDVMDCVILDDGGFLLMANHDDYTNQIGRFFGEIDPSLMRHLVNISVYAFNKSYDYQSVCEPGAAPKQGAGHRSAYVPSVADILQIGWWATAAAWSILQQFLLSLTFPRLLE
Voltage-dependent calcium channel subunit alpha-2/delta-1, sequence (P54289 957-1103 limits assumed): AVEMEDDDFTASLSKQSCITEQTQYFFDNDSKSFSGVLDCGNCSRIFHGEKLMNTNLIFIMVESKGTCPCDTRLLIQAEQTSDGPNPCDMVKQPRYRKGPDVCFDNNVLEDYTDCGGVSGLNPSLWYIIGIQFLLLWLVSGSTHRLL

On to `CSc1ncc2c(n1)N(C)CCN(c1cccc(OC(CCN(CCF)C(=O)OC(C)(C)C)c3cccs3)c1)C2=O` (stereo not given), for which the Ki was more than 3 µM. For `CNCC[C@H](Oc1cc(F)ccc1CN1CCN(C)c2nc(OC)ncc2C1=O)c1cccs1` the value was more than 3 µM; for `CSc1ncc2c(n1)N(C)CCN(c1cccc(-c3nnc(CN(C)C(=O)OC(C)(C)C)o3)c1)C2=O`, more than 3 µM; for `CCNc1cc2c(cn1)C(=O)N(c1cccc(COC(CCN(C)C(=O)OC(C)(C)C)c3ccccc3)c1)CCN2C` (stereo not given), more than 3 µM. For `CCNc1cc2c(cn1)C(=O)N(c1cccc(OC(CCN(C)C(=O)OC(C)(C)C)c3ccccc3)c1)CCN2C` (stereo not given) the value was more than 3 µM.

Source of the values: ChEMBL document CHEMBL5727627, “Tetrahydropyrimidodiazepine and dihydropyridodiazepine compounds for treating pain and pain related conditions” (2020).
